Measured values reported in patent publication US11744825B2, “Methods of treating hypersensitive cough or itching using ion channel inhibitory compounds” (AFASCI, Inc., priority 2018, dated 2023).
Where “and” joins values, the source holds several entries; their conditions need not be identical. Equal values may be shown once. Entries after “also recorded” stand apart in the source; their conditions may differ.

How the values were obtained:
INa in rat DRG = experiment: Inhibition of INa current in dissociated rat DRG neurons; type: cell-based; settings: for IC50: rat DRG neurons, read-out: Inhibition of Currents in rat DRG: INa IC50; for Na/T: ratio of INa IC50 to T-type IC50
Excerpt: (§1) A representative panel of AFA/EX compounds was investigated on a variety of recombinant human ion channels expressed in mammalian cells and on native ion channels in dissociated rat dorsal root ganglion (DRG) neurons. […] Thus, this panel of compounds was next investigated on their effects on itching scratching behavior in two well-established itching models in mice.

[1] = test system: histamine-induced itching; experiment: Histamine-induced itching (neck model of itch) in mice; type: in vivo, mouse; settings: 30 mg/kg i.p., 30 min before pruritogen
Description: (§2) Neck model of itch was employed. Mice (C57BL/6, male, 3-4 months old) were shaved at the nape of the neck 2-3 days before experiments. On the day of behavioral testing mice were individually placed in small plastic chambers (12 cm L×9.5 W×12 H) that inserted into an ordinary homecage at least 30 min for habituation and recorded baseline of behavior using a video camera and a piezoelectric floor sensor operated by a validated homecage behavioral monitory system, SmartCage, which can monitor multiple mouse scratching behaviors simultaneously. Treatment with an individual test article (10 representative AFA-compounds, each at 30 mg/kg) or vehicle (0.5% hydroxyl propyl cellulose aqueous solution containing 2% DMSO) were intraperitoneally (i.p.) injected 30 min prior to itching induction. Mice were given an intradermal injection of 50 μl of a pruritogen, chloroquine or histamine into the nape of the neck. Immediately after the injection, mice were returned to their chambers and were continually recorded by the piezoelectric floor sensor for 30 min. Human manual scoring of itching scratch behavior in real-time and confirmed by video and/or piezoelectric recordings offline. The itch behavior was quantified by counting the number of scratches in a blinded to the treatment manner. A scratch was counted when a mouse lifted its hindpaw to scratch the shaved region and returned the paw to the floor or to the mouth for licking. The piezoelectric signals with a larger and regular waveform distinguished from normal homecage activity were analyzed off-line to objectively quantifying scratch episodes and durations.

[2] = biological target: T1, hERG potassium (K+) channels (Homo sapiens, UniProt Q12809); experiment: hERG potassium channel inhibition; type: cell-based
T1 construct: expressed in transfected cells
Excerpt: as §1

IK in rat DRG = experiment: Inhibition of IK current in dissociated rat DRG neurons; type: cell-based; settings: for IC50: rat DRG neurons, read-out: Inhibition of Currents in rat DRG: IK IC50; for K/T: ratio of IK IC50 to T-type IC50
Excerpt: as §1

hCav3.2 Channel = biological target: T2, hCav3.2 Channel (Homo sapiens, UniProt O95180); experiment: Recombinant hCav3.2 channel expressed in mammalian cells; type: cell-based; parameters: hCav3.2 Channel % Use Dep. (use dependent inhibition): concentration or dose not given beside the values
T2 construct: expressed in transfected cells
T2 sequence (O95180 whole entry): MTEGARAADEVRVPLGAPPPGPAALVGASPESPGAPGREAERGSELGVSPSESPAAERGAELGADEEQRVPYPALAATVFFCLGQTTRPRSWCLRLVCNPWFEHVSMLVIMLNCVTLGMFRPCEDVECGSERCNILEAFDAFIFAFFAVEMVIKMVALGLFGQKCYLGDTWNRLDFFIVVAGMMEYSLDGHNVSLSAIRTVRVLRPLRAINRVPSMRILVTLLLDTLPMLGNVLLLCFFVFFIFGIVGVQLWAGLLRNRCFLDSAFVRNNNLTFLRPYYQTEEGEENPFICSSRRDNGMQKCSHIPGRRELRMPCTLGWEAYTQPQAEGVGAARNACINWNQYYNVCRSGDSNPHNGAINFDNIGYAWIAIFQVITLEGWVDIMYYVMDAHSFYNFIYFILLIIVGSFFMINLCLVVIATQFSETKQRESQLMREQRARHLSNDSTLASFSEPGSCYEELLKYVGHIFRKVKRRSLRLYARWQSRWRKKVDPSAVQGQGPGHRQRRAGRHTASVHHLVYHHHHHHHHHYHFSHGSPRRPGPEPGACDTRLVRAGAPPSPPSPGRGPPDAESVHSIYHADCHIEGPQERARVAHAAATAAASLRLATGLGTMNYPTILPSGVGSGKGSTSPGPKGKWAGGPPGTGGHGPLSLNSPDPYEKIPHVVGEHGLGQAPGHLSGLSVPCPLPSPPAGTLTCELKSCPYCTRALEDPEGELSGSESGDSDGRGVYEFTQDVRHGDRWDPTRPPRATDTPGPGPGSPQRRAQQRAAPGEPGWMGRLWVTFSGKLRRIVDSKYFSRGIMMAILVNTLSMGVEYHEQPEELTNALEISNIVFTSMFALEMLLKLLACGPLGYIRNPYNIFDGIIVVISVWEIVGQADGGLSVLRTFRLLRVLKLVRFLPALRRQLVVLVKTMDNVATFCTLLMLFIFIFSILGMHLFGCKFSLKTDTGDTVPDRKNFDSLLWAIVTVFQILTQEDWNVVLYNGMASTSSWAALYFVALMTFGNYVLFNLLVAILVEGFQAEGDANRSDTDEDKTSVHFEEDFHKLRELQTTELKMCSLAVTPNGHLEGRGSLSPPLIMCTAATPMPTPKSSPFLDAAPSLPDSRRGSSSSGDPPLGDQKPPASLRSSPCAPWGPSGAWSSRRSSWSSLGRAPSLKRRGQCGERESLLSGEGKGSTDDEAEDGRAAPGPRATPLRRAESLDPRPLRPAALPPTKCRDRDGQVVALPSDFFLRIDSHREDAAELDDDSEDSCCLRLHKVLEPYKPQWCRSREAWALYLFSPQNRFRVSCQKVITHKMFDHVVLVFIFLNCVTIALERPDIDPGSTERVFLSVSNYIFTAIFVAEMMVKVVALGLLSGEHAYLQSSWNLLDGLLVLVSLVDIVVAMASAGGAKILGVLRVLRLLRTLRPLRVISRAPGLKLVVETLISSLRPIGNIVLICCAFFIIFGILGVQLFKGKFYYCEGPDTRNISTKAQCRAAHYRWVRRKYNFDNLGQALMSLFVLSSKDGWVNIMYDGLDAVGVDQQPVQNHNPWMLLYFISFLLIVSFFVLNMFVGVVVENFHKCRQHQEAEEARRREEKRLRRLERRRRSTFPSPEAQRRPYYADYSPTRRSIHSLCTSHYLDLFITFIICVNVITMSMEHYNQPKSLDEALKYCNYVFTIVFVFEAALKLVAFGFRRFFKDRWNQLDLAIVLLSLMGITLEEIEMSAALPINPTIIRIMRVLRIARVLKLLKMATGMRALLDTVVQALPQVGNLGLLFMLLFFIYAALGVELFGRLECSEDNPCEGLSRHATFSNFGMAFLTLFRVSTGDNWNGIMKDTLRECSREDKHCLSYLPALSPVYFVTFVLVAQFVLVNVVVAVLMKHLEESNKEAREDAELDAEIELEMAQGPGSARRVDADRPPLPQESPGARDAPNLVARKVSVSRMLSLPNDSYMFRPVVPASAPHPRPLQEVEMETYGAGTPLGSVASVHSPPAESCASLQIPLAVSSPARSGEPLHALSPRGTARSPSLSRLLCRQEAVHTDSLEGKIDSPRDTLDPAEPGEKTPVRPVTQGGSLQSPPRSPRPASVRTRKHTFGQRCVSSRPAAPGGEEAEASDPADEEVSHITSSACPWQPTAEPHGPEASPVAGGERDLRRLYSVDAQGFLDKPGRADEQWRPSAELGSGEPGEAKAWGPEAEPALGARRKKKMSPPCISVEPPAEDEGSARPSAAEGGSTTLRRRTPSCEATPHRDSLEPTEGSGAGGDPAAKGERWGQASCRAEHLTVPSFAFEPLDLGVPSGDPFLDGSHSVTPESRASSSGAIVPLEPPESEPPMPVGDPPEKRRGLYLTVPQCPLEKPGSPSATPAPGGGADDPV
Excerpt: as §1

hCav2.2 = hCav2.2 (Homo sapiens, UniProt Q00975); experiment: Recombinant hCav2.2 channel expressed in mammalian cells; type: cell-based; settings: for IC50: recombinant human channel
Excerpt: as §1

[3] = test system: chloroquine-induced itching; experiment: Chloroquine-induced itching (neck model of itch) in mice; type: in vivo, mouse; settings: 30 mg/kg i.p., 30 min before pruritogen
Description: as §2

T current in rat DRG = biological target: T3, T current in rat DRG (Rattus norvegicus, UniProt Q9EQ60); experiment: Inhibition of T current in dissociated rat DRG neurons; type: cell-based; settings: read-out: Inhibition of Currents in rat DRG: T IC50
T3 construct: native ion channels in dissociated rat dorsal root ganglion (DRG) neurons; from tissue; host or cells: dissociated rat dorsal root ganglion neurons
Excerpt: as §1

hNav1.5 = hNav1.5 (Homo sapiens, UniProt Q14524); experiment: Recombinant hNav1.5 channel expressed in mammalian cells; type: cell-based
hNav1.5, sequence (Q14524 whole entry): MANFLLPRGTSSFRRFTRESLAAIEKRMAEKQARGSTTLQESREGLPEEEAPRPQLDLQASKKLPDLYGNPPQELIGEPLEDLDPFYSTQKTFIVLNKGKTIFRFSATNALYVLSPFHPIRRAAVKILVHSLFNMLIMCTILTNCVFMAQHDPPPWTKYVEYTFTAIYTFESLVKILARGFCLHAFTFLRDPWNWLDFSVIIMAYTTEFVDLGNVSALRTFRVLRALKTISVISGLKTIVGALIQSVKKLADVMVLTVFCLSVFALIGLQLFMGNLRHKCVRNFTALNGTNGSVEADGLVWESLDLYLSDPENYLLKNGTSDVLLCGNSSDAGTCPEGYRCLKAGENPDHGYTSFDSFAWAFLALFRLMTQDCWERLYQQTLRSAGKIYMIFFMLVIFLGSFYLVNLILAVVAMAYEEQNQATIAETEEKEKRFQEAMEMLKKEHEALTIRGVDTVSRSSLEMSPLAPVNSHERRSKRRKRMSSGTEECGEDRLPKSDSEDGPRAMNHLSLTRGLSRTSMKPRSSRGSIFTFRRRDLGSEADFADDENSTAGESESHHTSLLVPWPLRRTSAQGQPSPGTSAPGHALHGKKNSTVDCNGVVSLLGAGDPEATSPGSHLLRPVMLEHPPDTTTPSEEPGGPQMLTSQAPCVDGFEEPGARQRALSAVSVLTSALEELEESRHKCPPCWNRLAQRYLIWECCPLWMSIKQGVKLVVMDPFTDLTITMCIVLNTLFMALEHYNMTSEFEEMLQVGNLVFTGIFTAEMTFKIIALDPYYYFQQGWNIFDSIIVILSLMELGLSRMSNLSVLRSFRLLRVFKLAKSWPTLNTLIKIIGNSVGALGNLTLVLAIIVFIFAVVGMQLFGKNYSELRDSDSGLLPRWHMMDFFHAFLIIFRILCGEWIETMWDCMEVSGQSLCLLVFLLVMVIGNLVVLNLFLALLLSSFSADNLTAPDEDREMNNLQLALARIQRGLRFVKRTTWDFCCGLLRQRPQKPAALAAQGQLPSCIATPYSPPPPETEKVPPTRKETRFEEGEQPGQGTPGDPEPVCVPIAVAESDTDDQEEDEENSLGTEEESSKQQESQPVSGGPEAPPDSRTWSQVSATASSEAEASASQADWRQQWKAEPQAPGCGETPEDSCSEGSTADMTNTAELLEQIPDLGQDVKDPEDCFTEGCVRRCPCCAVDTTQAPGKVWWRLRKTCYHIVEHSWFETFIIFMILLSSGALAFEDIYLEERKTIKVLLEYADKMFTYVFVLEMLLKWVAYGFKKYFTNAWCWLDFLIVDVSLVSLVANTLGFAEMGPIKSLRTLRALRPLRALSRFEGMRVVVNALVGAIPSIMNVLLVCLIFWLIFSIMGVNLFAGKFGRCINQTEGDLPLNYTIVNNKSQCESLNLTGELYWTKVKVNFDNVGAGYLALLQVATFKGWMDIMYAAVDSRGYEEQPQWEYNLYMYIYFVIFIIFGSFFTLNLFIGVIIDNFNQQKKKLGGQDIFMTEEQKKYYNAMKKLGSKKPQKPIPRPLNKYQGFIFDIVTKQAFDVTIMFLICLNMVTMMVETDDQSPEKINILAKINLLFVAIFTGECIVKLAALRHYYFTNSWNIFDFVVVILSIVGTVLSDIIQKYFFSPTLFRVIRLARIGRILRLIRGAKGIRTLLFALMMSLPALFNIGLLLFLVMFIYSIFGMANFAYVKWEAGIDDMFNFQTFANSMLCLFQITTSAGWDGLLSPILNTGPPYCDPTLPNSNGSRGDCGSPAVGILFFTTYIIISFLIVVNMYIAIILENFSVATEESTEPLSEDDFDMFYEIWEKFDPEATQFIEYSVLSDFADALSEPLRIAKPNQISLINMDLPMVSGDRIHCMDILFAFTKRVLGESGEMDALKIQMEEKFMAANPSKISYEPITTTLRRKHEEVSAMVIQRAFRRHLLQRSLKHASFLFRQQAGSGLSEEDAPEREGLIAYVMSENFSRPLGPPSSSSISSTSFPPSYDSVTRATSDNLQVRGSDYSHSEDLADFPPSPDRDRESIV
Excerpt: as §1

hiPSC INa = hiPSC INa current; type: cell-based, human
hCav1.2 = hCav1.2 (Homo sapiens, UniProt Q13936); experiment: Recombinant hCav1.2 channel expressed in mammalian cells; type: cell-based
Excerpt: as §1

[4] = test system: citric acid-induced cough; experiment: Citric acid-induced cough in naive, conscious guinea pigs; type: in vivo, guinea pig; settings: for reduction of the number of cough events: guinea pig
Description: Guinea pigs (male, 280 g body weight, Hartley Crl:HA, Charles River) were maintained in temperature 21±2° C., humidity 55±10%, 12 hours on-12 hours off light cycle, with food and water ad libitum for at least 1 week before testing. Cough was induced with citric acid aerosol inhalation and cough assessment by human manual score (Gallico, Borghi et al. 1994). Individual animals were placed in a 4 L plexiglas observation chambers continuously filled with 17.5% citric acid aerosol. Animal cough counts were recorded for 5 min. Coughs can be recognized on the basis of sound associated with a rapid inspiration followed by a rapid expiration. Only the animal with cough counts >=10 times/5 min was selected for experiment. The selected animal was then randomized divided into 5 groups, n=8/group. Five days after screening test, the representative AFA-compound, EX-17 at 0, 3, 10 and 30 mg/kg were administered 30 minutes while the benchmark dextromethorphan hydrobromide (60 mg/kg, p.o.) 60 minutes prior to the citric acid inhalation, based on their PK profiles. […] The latency to the first cough has been used as an additional parameter to evaluate antitussive property.
Using the same test protocol, three more representative EX-compounds EX-128, -130 and -132 (each 30 mg/kg, p.o.) or vehicle were tested by orally administering 30 minutes while dextromethorphan hydrobromide (60 mg/kg, p.o.) 60 minutes prior to the citric acid inhalation, based on their PK profiles. […] The latencies to the first cough were increased with three compounds and the benchmark (FIG. 2B).

T-type Ca2+ current = settings: Avdonin et al., 2000; cited from earlier work
[5] = 30 mg/kg p.o., 30 min before citric acid
[6] = 30 mg/kg p.o., vs vehicle-treated control

| SMILES | IC50 (INa in rat DRG) [µM] | Na/T (INa in rat DRG) | inhibition of histamine-induced itching scratching behavior [1] | hERG % at 1 μM [2] [% at] | IC50 (IK in rat DRG) [µM] | K/T (IK in rat DRG) | IC50 (hCav3.2 Channel) [µM] | hCav3.2 Channel % Use Dep. (use dependent inhibition) (hCav3.2 Channel) [%] | inhibition of chloroquine-induced itching scratching behavior [3] | IC50 (hCav2.2) [µM] | IC50 (T current in rat DRG) [µM] | IC50 (hNav1.5) [µM] | IC50 (hiPSC INa) [µM] | reduction of the number of cough events [4, 5] [%] | latency to the first cough [4, 6] | IC50 [2] [µM] | other results |
| --- | --- | --- | --- | --- | --- | --- | --- | --- | --- | --- | --- | --- | --- | --- | --- | --- | --- |
| CC(C)(C)CCN1CCC2(CC1)CC2N(CC1CC1)C(=O)c1cc(Cl)cc(Cl)c1 (stereo not shown) [AFA-206] | 20.3 | 303 | preferentially inhibited histamine-induced itching | 50 | 6.8 | 102 | 0.067 | 8.2 | – | – | – | – | – | – | – | – | – |
| CC(C)(C)CCN1CCC2(CC1)CC2NC(=O)Cc1cc(C(F)(F)F)cc(C(F)(F)F)c1 (stereo not shown) [AFA-221] | 3.6 | 43 | potent and equal efficacy | 31 | ~30 | 357 | 0.084 | 28.3 | potent and equal efficacy | – | – | – | – | – | – | – | hCav2.2 % at 3 μM (hCav2.2; at 3 μM): 47% at; inhibition of histamine-induced itching scratching behavior ([1]; listed as EX-31): effective; inhibition of chloroquine-induced itching scratching behavior ([3]; listed as EX-31): effective |
| CC(C)(C)NC(=O)CN1CCC(CNC(=O)c2cc(F)cc(Cl)c2)CC1 [AFA-258, reference compound] | > 100 | >513 | – | – | > 100 | >513 | 0.195 | 17.6 | did not produce anti-itching effects | > 30 | 0.2 | > 100 | 21.4 | – | – | – | IC50 (hCav1.2): > 30 µM |
| CC(C)(C)NC(=O)CN1CCC2(CC1)CC2NC(=O)c1cc(F)cc(Cl)c1 (stereo not shown) [AFA-279] | > 100 | >1115 | did not produce anti-itching effects | – | > 100 | >1115 | 0.113 | 21.3 | did not produce anti-itching effects | > 10 | 0.19 | 76.4 | 83.5 | 39.1 | trend of increasing the latency, but not reaching significant difference | 6.7 | – |
| CC(C)(C)NC(=O)CN1CCC2(CC1)CC2NC(=O)c1cc(F)cc(C(F)(F)F)c1 (stereo not shown) [AFA-281] | > 100 | >557 | potent and equal efficacy | – | > 100 | >557 | 0.179 | 13.9 | potent and equal efficacy | > 30 | 0.6 | > 100 | 31.4 | 33 | trend of increasing the latency, but not reaching significant difference | 8 | inhibition of histamine-induced itching scratching behavior ([1]; listed as EX-130): effective; inhibition of chloroquine-induced itching scratching behavior ([3]; listed as EX-130): effective |
| CC(C)(C)NC(=O)CN1CCC2(CC1)C[C@H]2NC(=O)C12CC3CC(CC(C3)C1)C2 [AFA-309] | > 30 | >212 | preferentially inhibited histamine-induced itching | – | > 30 | >212 | 0.141 | 4.2 | – | 15.6 | – | 25.8 | – | – | – | > 30 | hiPSC INa % at 3 μM (hiPSC INa; at 3 μM): 0% at; IC50 (hCav1.2): > 30 µM |
| CC(C)(C)NC(=O)CN1CCC2(CC1)CC2C(=O)Nc1cc(C(F)(F)F)cc(C(F)(F)F)c1 (stereo not shown) [AFA-322] | 14.3 | 103 | preferentially inhibited histamine-induced itching | – | > 100 | >723 | 0.138 | 25.6 | – | 3.09 | 0.15 | 23.5 | 51.6 | 15.7 | trend of increasing the latency, but not reaching significant difference | 9.2 | – |
| C[C@H]1CN(S(=O)(=O)c2ccc(C(F)(F)F)cc2)CCN1C(=O)c1ccc2cccnc2c1 [AFA-353] | > 100 | >10 | – | 23 | > 100 | >10 | 10.4 | – | – | 8.87 | – | – | – | – | – | – | – |
| O=C(NC1CC12CCN(S(=O)(=O)c1ccc(C(F)(F)F)cc1)CC2)c1cc(C(F)(F)F)cc(C(F)(F)F)c1 (stereo not shown) [AFA-358] | > 30 | >30 | effective; also recorded: potent and equal efficacy | 59 | > 30 | >30 | 1.01 | – | effective; also recorded: potent and equal efficacy | 0.74 | – | – | – | – | – | – | – |
| CC(C)(C)NC(=O)CN1CCC2(CC1)CC2NC(=O)c1ccc(Cl)cc1F (stereo not shown) [EX-17] | – | – | – | – | – | – | – | – | – | – | – | – | – | 36.8 | reached significance; also recorded: significant increases | – | reduction of the number of cough events ([4]; 3 mg/kg p.o., 30 min before citric acid): 7.2%; reduction of the number of cough events ([4]; 10 mg/kg p.o., 30 min before citric acid): 23.3%; latency to the first cough ([4]; p.o., EX compounds 3-30 mg/kg, dextromethorphan 60 mg/kg): increases in the latencies of the first cough in a dose-dependent manner |
| COc1ccc2c(c1)[C@]13CCCC[C@@H]1[C@H](C2)N(C)CC3 [dextromethorphan, reference compound] | – | – | – | – | – | – | – | – | – | – | – | – | – | – | – | – | reduction of the number of cough events ([4]; 60 mg/kg p.o., 60 min before citric acid): 40.0% and 42.6%; latency to the first cough ([4]; 60 mg/kg p.o., vs vehicle-treated control): significant increases; also recorded: trend of increasing the latency, but not reaching significant difference; latency to the first cough ([4]; 60 mg/kg p.o., vs vehicle-treated control, listed as dextromethorphan hydrobromide): reached significance |
| COCC(=O)O[C@]1(CCN(C)CCCc2nc3ccccc3[nH]2)CCc2cc(F)ccc2[C@@H]1C(C)C [mibefradil] | – | – | – | – | – | – | – | – | – | – | – | – | – | – | – | – | more potent inhibition of the T-type than of the L-type Ca2+ current or the voltage-gated Na+ current (T-type Ca2+ current): 3-10 times |
